Experimental data from publication PMC4081582, “Enhancing Effect of Borneol and Muscone on Geniposide Transport across the Human Nasal Epithelial Cell Monolayer” (PLoS ONE, 2014).

What was measured:
Type in all cases: cell-based, human
HNECs = experiment: Membrane fluidity of HNECs by FRAP
Procedure: The cells were seeded on cell plate at a density of 5×10^4 cells·cm^−2. The above formulation groups were added and the plates were incubated for 3 h at 37 °C in a 5% CO2 incubator. Cells were rinsed with HBSS and stained with NBD-C6-HPC at 2 µg·mL^−1 for 30 min.
A method of fluorescence recovery after photobleaching (FRAP) was used here. After the definition of line scanning position, length and photobleaching position, the monolayer was visualized by a Confocal Laser Scanning Microscope under the following conditions: excitation wavelength of 488 nm, emission wavelength of 530 nm, laser power for fluorescence bleaching of 100%, bleaching time of 0.7 s, scanning frequency of 1.65 s and the total scanning time of 100 s. The fluorescence intensity time-variation at the photobleaching position was recorded and image formation was obtained by confocal tomoscanning.
The membrane fluidity was represented by fluorescence recovery rate (R) which was calculated with the following equation (4): [drawing 4] where F0 is the instant fluorescence value after photobleaching, F1 is the fluorescence value before photobleaching and F2 is the fluorescence recovery value after photobleaching.

HNEC monolayer = experiment: TEER measurement of HNEC monolayer
Procedure: Transepithelial electrical resistance was measured using an EVOM instrument (Millipore Corporation, USA) to check the monolayer integrity. The TEER of untreated cells and cells treated with borneol and muscone was determined in BEGM:DMEM/F12 (1∶1) before the experiment, after the experiment and after 24 h.

actin = experiment: Actin immunostaining of HNEC monolayer (tight junction); conditions: 3 h exposure with geniposide 50 µg·mL^−1, vs control
From the text: Cells cultured on 12-well polyester membrane Transwell clear inserts were stained for actin. […] Fluorescence was visualized on an epifluorescence microscope (IX-71, Olympus, Japan) using a blue filter and images were taken using the analysis software.

Compound: C[C@@H]1CCCCCCCCCCCCC(=O)C1 [muscone, Muscone]
- Fluorescence recovery rate R (%)±SD (HNECs; Mu 4.17 µg·mL^−1 with Ge 50 µg·mL^−1, 3 h): 36.43±3.37%
- Fluorescence recovery rate R (%)±SD (HNECs; Mu 8.34 µg·mL^−1 with Ge 50 µg·mL^−1, 3 h): 45.45±1.68 %
- Fluorescence recovery rate R (%)±SD (HNECs; Mu 16.68 µg·mL^−1 with Ge 50 µg·mL^−1, 3 h): 49.77±5.63 %
- TEER after washing and incubating with BEGM:DMEM/F12 (1∶1) for 24 h (HNEC monolayer; after permeation experiment): increased again
- TEER decrease during permeation studies, of the initial value (HNEC monolayer; borneol 55.6, 111.2 µg·mL^−1, muscone 8.34, 16.68 µg·mL^−1, and combinations, P<0.05): 10–20%
- levels of the TJ proteins localized in the cell-cell junctions (actin): decreased
